Experimental data as given in US12590099B2, “Inhibitors of histone deacetylase useful for the treatment or prevention of HIV infection” (Merck Sharp & Dohme LLC, priority 2018, dated 2026).
Read-outs that look alike come from different tables or passages of the source.

Experiments:
[1] = biological target: T1, Recombinant human HDAC8 (Homo sapiens, UniProt Q9BY41); experiment: Human HDAC enzyme inhibitor Fluor-de-Lys assay, HDAC8; assay type: biochemical
T1 construct: purchased Enzo Life Sciences BML-SE145-0100
T1 sequence (Q9BY41 1-377): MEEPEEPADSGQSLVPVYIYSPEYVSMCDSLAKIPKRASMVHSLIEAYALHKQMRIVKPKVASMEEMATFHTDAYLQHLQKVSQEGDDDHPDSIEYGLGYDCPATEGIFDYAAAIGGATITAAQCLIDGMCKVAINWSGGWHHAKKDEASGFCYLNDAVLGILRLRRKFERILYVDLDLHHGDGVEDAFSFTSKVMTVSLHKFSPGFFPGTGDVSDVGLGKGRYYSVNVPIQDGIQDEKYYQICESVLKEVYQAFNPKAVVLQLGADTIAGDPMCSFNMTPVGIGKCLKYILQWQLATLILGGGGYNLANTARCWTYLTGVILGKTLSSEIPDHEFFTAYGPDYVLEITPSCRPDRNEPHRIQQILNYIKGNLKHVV
Protocol: (§1) Human HDAC Enzyme Inhibitor Fluor-De-Lys Assay
(§2) Recombinant human HDAC8 (BML-SE145-0100) and HDAC10 (BML-SE559-0050) enzymes, HDAC substrates BML-KI104 and BML-KI178, and HDAC developer solutions BML-KI105 and BML-KI176 were purchased from Enzo Life Sciences. […] HDAC inhibitor suberoylanilide hydroxamic acid (SAHA) was obtained from Indofine and trichostatin A (TSA) was obtained from Sigma-Aldrich.
(§3) The histone deacetylase activities of HDAC1, HDAC2, HDAC3, HDAC6, and HDAC8 were measured in modified FLUOR DE LYS assays in 384-well format. In this assay, HDAC enzymes are initially incubated with an ε-acetyl (or -trifluoroacetyl)-L-lysine-containing substrate with a C-terminal amide having aminomethylcoumarin as the amine component. HDACs cleave the ε-acetyl group, rendering the resulting product susceptible to AMC cleavage by trypsin. The released AMC is then detected by its fluorescence.
(§4) The HDAC3/SMRT assay employed buffer B, consisting of 20 mM HEPES, pH 8.0, 1 mM MgCl2, 50 mM NaCl, 2.7 mM KCl, 0.05% BSA, 0.005% Tween 20, and 10 μM IP4. […] The HDAC8 assay employed buffer D, consisting of 20 mM HEPES, pH 8.0, 1 mM MgCl2, 100 mM NaCl, 20 mM KCl, 0.10% n-octyl-β-D-glucoside (Anatrace) and 0.05% BSA. All steps were performed at room temperature (23° C.). The assay was performed by pre-incubating serial dilutions of test compounds with the target HDAC prior to initiation with substrate. Each compound was titrated in a 10-point dose response, using a 1:3 fold dilution scheme, with 0.15 ul of solution added by ECH0555 to the plate, followed by the addition of 20 μl of the appropriate HDAC isoform diluted in appropriate assay buffer. […] Final conditions used for each assay were: 1. HDAC 1, 0.3 nM total enzyme, 20 μM substrate BML-KI104; 2. […] HDAC 3/SMRT, 0.3 nM total enzyme, 20 μM substrate BML-KI104; 4. […] The reactions were stopped and developed by addition of 30 ul of HDAC developer solution containing a saturating level of HDAC inhibitor as follows: 1.

[2] = system: KARN cells (Jurkat 2C4); experiment: cells; assay type: cell-based; details: Homo sapiens, Jurkat
Protocol: KARN cells (Jurkat 2C4) were licensed from the laboratory of Dr. John Karn, Case Western Reserve University, School of Medicine. […] An atmosphere of 5% CO2 and 90% humidity was used for all culture work.
Day 1: After the 3-4 day growth period, the cells were transferred from the T175 flask to a 50 ml conical tube and gently pelleted at 1000 rpm for 5 minutes. […] These flasks were returned to the incubator.
Day 2: Cell Preparation: The next day, the cells were transferred from each T175 flask to an individual 50 ml conical tube and gently pelleted at 1000 rpm for 5 minutes. The cells were gently resuspended in assay media (30 ml) and pelleted again. […] The cells were counted using the ViCell (Beckman Coulter) and diluted as necessary. […] The plates were covered and returned to the incubator prior to compound addition.
The reference compounds, DMSO and SAHA were then added to the compound plate. […] The final high concentration for SAHA and the test compounds in the assays was 40 μM. The final DMSO concentration in all wells was 0.4%. The minimal induction reference compound used was DMSO and the maximal induction reference compound used was SAHA (2 μM final concentration in the assay).
Day 3: The luciferase detection reagent was prepared by transferring the contents of one bottle of Steady-Glo buffer to one bottle of Steady-Glo aubstrate (Steady-Glo Luciferase Assay System, Promega, catalog number E2520), followed by gently mixing until the substrate was thoroughly dissolved and the solution was equilibrated to room temperature. […] The Steady-Glo Reagent was added to the plates (30 μl/well), which were then covered with a black lid and incubated for 10 minutes at room temperature. The plates were then read for luminescence on an Envision (Perkin Elmer) using the ultrasensitive mode (US LUM), […] and 384-well aperture. Luminescence counts in the DMSO reference wells were considered as 0% induction, while those in the 2 μM SAHA reference wells were considered as 100% induction. Dose response curves were plotted as test compound concentration (X-axis) vs. percent activation (Y-axis) using a 4-parameter fit based on the Levenberg-Marquardt algorithm.

[3] = biological target: T2, HDAC6 (Homo sapiens, UniProt Q9UBN7); experiment: Human HDAC enzyme inhibitor Fluor-de-Lys assay, HDAC6; assay type: biochemical
T2 sequence (Q9UBN7 1-1215): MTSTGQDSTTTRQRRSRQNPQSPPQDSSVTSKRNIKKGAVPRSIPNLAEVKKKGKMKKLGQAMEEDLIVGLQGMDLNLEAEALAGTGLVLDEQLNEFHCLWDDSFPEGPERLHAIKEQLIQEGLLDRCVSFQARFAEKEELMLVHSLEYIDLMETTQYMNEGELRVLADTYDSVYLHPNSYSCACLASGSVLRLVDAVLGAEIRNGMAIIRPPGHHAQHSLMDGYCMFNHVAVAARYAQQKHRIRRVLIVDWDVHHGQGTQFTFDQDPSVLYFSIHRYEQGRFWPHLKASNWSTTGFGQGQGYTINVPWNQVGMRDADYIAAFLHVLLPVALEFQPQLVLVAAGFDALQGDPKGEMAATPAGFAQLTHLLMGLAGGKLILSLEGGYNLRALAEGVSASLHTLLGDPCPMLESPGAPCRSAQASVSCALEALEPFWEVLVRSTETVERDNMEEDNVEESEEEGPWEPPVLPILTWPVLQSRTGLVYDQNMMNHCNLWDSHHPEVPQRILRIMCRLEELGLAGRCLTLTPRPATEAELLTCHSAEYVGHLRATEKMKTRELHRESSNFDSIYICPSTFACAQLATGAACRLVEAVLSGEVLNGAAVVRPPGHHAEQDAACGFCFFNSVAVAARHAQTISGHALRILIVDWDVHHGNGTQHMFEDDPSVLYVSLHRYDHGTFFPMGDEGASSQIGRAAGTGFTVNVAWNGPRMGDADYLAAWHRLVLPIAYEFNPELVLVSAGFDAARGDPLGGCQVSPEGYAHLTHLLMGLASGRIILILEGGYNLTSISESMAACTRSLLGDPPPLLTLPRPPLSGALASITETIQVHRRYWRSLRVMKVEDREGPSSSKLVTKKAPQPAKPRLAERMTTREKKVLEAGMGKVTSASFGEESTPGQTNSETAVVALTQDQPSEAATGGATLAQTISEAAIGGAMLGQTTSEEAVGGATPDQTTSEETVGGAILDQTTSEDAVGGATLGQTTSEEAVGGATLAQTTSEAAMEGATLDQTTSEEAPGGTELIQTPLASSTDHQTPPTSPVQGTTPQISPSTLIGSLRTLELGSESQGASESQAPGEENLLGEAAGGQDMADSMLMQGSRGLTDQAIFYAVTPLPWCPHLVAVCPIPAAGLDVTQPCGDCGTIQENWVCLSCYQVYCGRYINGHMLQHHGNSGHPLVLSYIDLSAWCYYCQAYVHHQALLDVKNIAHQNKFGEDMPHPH
Protocol: as §1, §2, §3, §4

[4] = recombinant human HDAC8, Fluor-de-Lys assay
[5] = read-out: Karn EC50 (nM) 0.1% NHS, 0.1% normal human serum, luciferase induction, 100% = 2 μM SAHA
[6] = read-out: Karn EC50 (nM) 5% NHS, 5% normal human serum, luciferase induction, 100% = 2 μM SAHA
[7] = read-out: Karn EC50 (nM) 0.1% NHS, 0.1% normal human serum
[8] = read-out: Karn EC50 (nM) 5% NHS, 5% normal human serum

| Structure (SMILES) | IC50 [1, 4] | EC50 [2, 5] | EC50 [2, 6] | IC50 ([3]; HDAC6, Fluor-de-Lys assay) | IC50 [1] | EC50 [2, 7] | EC50 [2, 8] | IC50 [3] |
| --- | --- | --- | --- | --- | --- | --- | --- | --- |
| CCC(=O)CCCCC[C@H](NC(=O)C1CC2(C1)CN(C)C2)c1ncc(-c2cc3ccccc3nc2OC)[nH]1 [Compound 311] | 2660 nM | 131 nM | 841 nM | 385 nM | – | – | – | – |
| CCC(=O)CCCCC[C@H](NC(=O)[C@H]1CC12CCN(CC)CC2)c1ncc(-c2ccc3c(=O)n(CC)ccc3c2)[nH]1 [Compound 92] | – | – | – | – | 6260 nM | 52 nM | 56 nM | 2980 nM |
| CCC(=O)CCCCC[C@H](NC(=O)[C@H]1CC12CCN(CC)CC2)c1ncc(-c2cc3cccnc3cc2OC)[nH]1 [Compound 181] | – | – | – | – | 5250 nM | 52 nM | 63 nM | 144 nM |
| CCC(=O)CCCCC[C@H](NC(=O)[C@H]1CC12CCN(Cc1ccccc1)CC2)c1ncc(-c2cc3ccccc3nc2OC)[nH]1 [Compound 293] | 8200 nM | 75 nM | 175 nM | 727 nM | – | – | – | – |
| CCC(=O)CCCCC[C@H](NC(=O)[C@@H]1CC12CN(C)C2)c1ncc(-c2cc3ccccc3nc2OC)[nH]1 [Compound 322] | 2490 nM | 74 nM | 287 nM | 219 nM | – | – | – | – |
| CCC(=O)CCCCC[C@H](NC(=O)[C@H]1CC12CCN(CC)CC2)c1ncc(-c2ccc3ncccc3c2)[nH]1 [Compound 346] | 3160 nM | 46 nM | 57 nM | 545 nM | – | – | – | – |
| CCC(=O)CCCCC[C@H](NC(=O)[C@H]1CC12CCN(C)CC2)c1ncc(-c2cc3ccc(-n4cccn4)cc3nc2OC)[nH]1 [Compound 176, (1S)—N-[(1S)-1-{5-[2-methoxy-7-(1H-pyrazol-1-yl)quinolin-3-yl]-1H-imidazol-2-yl}-7-oxononyl]-6-methyl-6-azaspiro[2.5]octane-1-carboxamide] | – | – | – | – | > 4500 nM | 45 nM | 76 nM | > 1500 nM |
| CCC(=O)CCCCC[C@H](NC(=O)[C@H]1CC12CCOCC2)c1ncc(-c2cc3ccccc3nc2OC)[nH]1 [Compound 63] | – | – | – | – | 3090 nM | 234 nM | 1790 nM | 619 nM |
| CCC(=O)CCCCC[C@H](NC(=O)[C@H]1CC12CCN(CC(F)(F)F)CC2)c1ncc(-c2cc3ccccc3nc2OC)[nH]1 [Compound 333] | 6090 nM | 113 nM | 719 nM | 1110 nM | – | – | – | – |
| CCC(=O)CCCCC[C@H](NC(=O)[C@@H]1CC12CCCN(C)C2)c1ncc(-c2cc3ccccc3nc2OC)[nH]1 (some centres unmarked) [Compound 285] | 9190 nM | 257 nM | 1010 nM | 260 nM | – | – | – | – |
| CCC(=O)CCCCC[C@H](NC(=O)[C@H]1CC12CCN(CC)CC2)c1ncc(-c2ccc(OC)cc2OC)[nH]1 [Compound 183] | – | – | – | – | 10400 nM | 58 nM | 93 nM | 898 nM |
| CCC(=O)CCCCC[C@H](NC(=O)[C@@H]1CC12CCOCC2)c1ncc(-c2cc3ccccc3nc2OC)[nH]1 [Compound 64] | – | – | – | – | 6350 nM | 647 nM | 5040 nM | 3580 nM |
| CCC(=O)CCCCC[C@H](NC(=O)[C@H]1CC12CCN(C)CC2)c1ncc(-c2cc3ccc(Cl)cc3nc2OC)[nH]1 [Compound 177] | – | – | – | – | 2560 nM | 22 nM | 41 nM | 341 nM |
| CCC(=O)CCCCC[C@H](NC(=O)C1CCC2(CC1)CN(CC)C2)c1ncc(-c2cc3ccccc3nc2OC)[nH]1 [Compound 271] | 1750 nM | 154 nM | 634 nM | 464 nM | – | – | – | – |
